Reference: PubChem BioAssay (NCI)
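Step 1: Grow cells in 96-well plates. Step 2: Expose to compound for 48 hours at 5 concentrations. Step 3: Interpolate endpoints linearly; if unreached, use highest concentration. At the GI50, growth is halved. TGI: total growth inhibition.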

Columns and labels:
Assay in all cases: NCI-60 cell line screen, 48 h
OVCAR-3 ovarian = tested on: OVCAR-3 ovarian
CAKI-1 renal = tested on: CAKI-1 renal
NCI-H460 lung = tested on: NCI-H460 lung
SNB-75 CNS = tested on: SNB-75 CNS
ACHN renal = tested on: ACHN renal
UO-31 renal = tested on: UO-31 renal
786-0 renal = tested on: 786-0 renal
NCI-H23 lung = tested on: NCI-H23 lung
U251 CNS = tested on: U251 CNS
LOX IMVI melanoma = tested on: LOX IMVI melanoma
SK-MEL-2 melanoma = tested on: SK-MEL-2 melanoma
SK-MEL-28 melanoma = tested on: SK-MEL-28 melanoma
HCT-116 colon = tested on: HCT-116 colon
HCT-15 colon = tested on: HCT-15 colon
SF-295 CNS = tested on: SF-295 CNS
NCI/ADR-RES ovarian = tested on: NCI/ADR-RES ovarian
OVCAR-5 ovarian = tested on: OVCAR-5 ovarian
UACC-62 melanoma = tested on: UACC-62 melanoma
HCC-2998 colon = tested on: HCC-2998 colon
HT29 colon = tested on: HT29 colon
IGROV1 ovarian = tested on: IGROV1 ovarian
SW-620 colon = tested on: SW-620 colon
NCI-H522 lung = tested on: NCI-H522 lung
NCI-H226 lung = tested on: NCI-H226 lung
T-47D breast = tested on: T-47D breast
OVCAR-8 ovarian = tested on: OVCAR-8 ovarian

Compound: N/C(=N\c1nc2ccccc2s1)NC(=NC1CCCCC1)NC1CCCCC1
- GI50 (OVCAR-3 ovarian): 1680 nM
- TGI (OVCAR-3 ovarian): 3170 nM
- GI50 (CAKI-1 renal): 1530 nM
- TGI (CAKI-1 renal): 2890 nM
- GI50 (NCI-H460 lung): 1770 nM
- TGI (NCI-H460 lung): 3430 nM
- GI50 (SNB-75 CNS): 1330 nM
- TGI (SNB-75 CNS): 2620 nM
- GI50 (ACHN renal): 1600 nM
- TGI (ACHN renal): 2960 nM
- GI50 (UO-31 renal): 1270 nM
- TGI (UO-31 renal): 2550 nM
- GI50 (786-0 renal): 1650 nM
- TGI (786-0 renal): 3230 nM
- GI50 (NCI-H23 lung): 1750 nM
- TGI (NCI-H23 lung): 3380 nM
- GI50 (U251 CNS): 1680 nM
- TGI (U251 CNS): 3480 nM
- GI50 (LOX IMVI melanoma): 1610 nM
- TGI (LOX IMVI melanoma): 2990 nM
- GI50 (SK-MEL-2 melanoma): 1780 nM
- TGI (SK-MEL-2 melanoma): 3470 nM
- GI50 (SK-MEL-28 melanoma): 1750 nM
- TGI (SK-MEL-28 melanoma): 3240 nM
- GI50 (HCT-116 colon): 1430 nM
- TGI (HCT-116 colon): 3010 nM
- GI50 (HCT-15 colon): 1470 nM
- TGI (HCT-15 colon): 2930 nM
- GI50 (SF-295 CNS): 1640 nM
- TGI (SF-295 CNS): 3030 nM
- GI50 (NCI/ADR-RES ovarian): 1640 nM
- TGI (NCI/ADR-RES ovarian): 3300 nM
- GI50 (OVCAR-5 ovarian): 1620 nM
- TGI (OVCAR-5 ovarian): 3070 nM
- GI50 (UACC-62 melanoma): 1610 nM
- TGI (UACC-62 melanoma): 3010 nM
- GI50 (HCC-2998 colon): 1580 nM
- TGI (HCC-2998 colon): 2980 nM
- GI50 (HT29 colon): 1630 nM
- TGI (HT29 colon): 3660 nM
- GI50 (IGROV1 ovarian): 1460 nM
- TGI (IGROV1 ovarian): 2950 nM
- GI50 (SW-620 colon): 1650 nM
- TGI (SW-620 colon): 3330 nM
- GI50 (NCI-H522 lung): 1890 nM
- TGI (NCI-H522 lung): 4220 nM
- GI50 (NCI-H226 lung): 1670 nM
- TGI (NCI-H226 lung): 3230 nM
- GI50 (T-47D breast): 1840 nM
- TGI (T-47D breast): 4150 nM
- GI50 (OVCAR-8 ovarian): 1970 nM
- TGI (OVCAR-8 ovarian): 4980 nM
